Source: paper PMC5772648, “Targeted NUDT5 inhibitors block hormone signaling in breast cancer cells” (Nature Communications, 2018)
“And” between values parts separate entries of the source, which are not always exact repeats. Equal entries are not always repeated.

Experiments:
NUDT5 in HL-60 cells = biological target: T1, NUDT5 in HL-60 cells (Homo sapiens, UniProt Q9UKK9); experiment: drug affinity responsive target stability (DARTS); assay type: cell-based; conditions: 0.74 and 2.2 µM, 4 h, HL-60 cells in culture
T1 construct: endogenous in cells; host or cells: HL-60
Protocol: Target engagement was also determined by drug affinity responsive target stability (DARTS)[33]. HL-60 cells were treated in culture with DMSO (0.1% v/v) or TH5427 at 0.7 or 2.2 µM for 4 h. Following two PBS washes, the cells were lysed with M-PER extraction buffer (ThermoFisher) supplemented with protease inhibitor cocktail (Roche). The lysates were divided into 20 µg aliquots and followed by digestion with pronase at the indicated protein to pronase ratios for 30 min at room temperature. Samples were prepared for western blotting and NUDT5 stabilization was compared with SOD1 as a loading control.

NUDT5 in T47D cells = biological target: T2, NUDT5 in T47D cells (Homo sapiens, UniProt Q9UKK9); experiment: intact cell CETSA in T47D cells; assay type: cell-based; conditions: 1.5 µM TH5427, 83 °C
T2 construct: endogenous in cells; host or cells: T47D (T47D^WT)
Protocol: (§1) For CETSA experiments with cells treated in culture, 1 × 10^6 HL-60 were treated with DMSO (0.1 % v/v final) or 20 µM compound for 3 h at 37 °C and 5% CO2 in a humidified incubator. T47D^WT cells were treated instead with 80 µM TH1659, 15 µM TH5423/5424 and 1.5 µM TH5427. The cells were harvested, washed twice with PBS and resuspended in TBS with protease inhibitors, as above. Heating was identical as before, except that immediately following heating, the cell suspensions were snap frozen in a dry ice/ethanol bath and freeze-thawed, as previously, to lyse cells. Centrifugation at 20 000 × g for 20 min at 4 °C removed cellular debris and protein aggregates, and lysates were prepared for western blotting.

T47D cells = experiment: R5020-induced proliferation by BrdU incorporation; assay type: cell-based; conditions: 1.5 µM, 24 h after R5020
Protocol: T47D^M cells (1 × 10^4) were plated in a 96-well plate in the presence or absence of inhibitors 2 h prior to R5020 addition. The cell proliferation ELISA BrdU chemiluminescent assay (Roche) was performed according to the manufacturer’s instructions 24 h following hormone addition.

U-2 OS cells = experiment: DNA damage signaling by immunofluorescence (γH2A.X, 53BP1, RPA); assay type: cell-based; conditions: 10 µM, 72 h
Protocol: Following siRNA knockdown for 48 h, 10 000 U-2 OS cells were seeded per well in black, clear-bottomed 96-well plates (BD Falcon) and allowed to grow for an additional 48 h. For inhibitor treatment experiments, cells were plated at 2000 per well and 10 µM TH5427 was added the following day for an additional 72 h. Cells were washed with PBS and then fixed with 4% paraformaldehyde in PBS (Santa Cruz) with 0.5% Triton X-100 for 15 min. Primary antibodies were γH2A.X (Millipore, 1:1000 or Cell Signaling, 1:1000), 53BP1 (Bethyl, 1:1000 or Abcam, 1:500) and RPA32 (Cell Signaling, 1:1000) diluted in 3% BSA/PBS and incubated at 4 °C overnight. Alexa Fluor secondary antibodies (ThermoFisher) were used at 1:1000 diluted in 3% BSA/PBS for 1 h at room temperature. DNA was counterstained with DAPI and plates were visualized using an ImageXpress high-throughput microscope (Molecular Devices) with 20x objective. Image analysis was performed with CellProfiler software (Broad Institute).

MTH1 [1] = biological target: T3, MTH1 (Homo sapiens, UniProt P36639); experiment: CETSA melt curve for MTH1; assay type: cell-based; parameters: endogenous in cells; conditions: 20 µM
Protocol: as §1

MTH1 [2] = biological target: T3, MTH1; experiment: phosphohydrolase selectivity, malachite green assay; assay type: biochemical; parameters: His-tag (N); made in house; host or cells: E. coli BL21 (DE3) R3 pRARE2
Protocol: The selectivity assay for TH5427 against similar pyrophosphohydrolases was performed with MTH1, NUDT9, NUDT2, NUDT12, NUDT14, NUDT15, NUDT18, ITPase, dCTPase and dUTPase[9]. All analyses were performed by malachite green assay following 30 min incubation at room temperature in reaction buffer (100 mM Tris Acetate, pH 7.5, 40 mM NaCl, 10 mM MgAc, 1 mM DTT) with 100 µM TH5427 and preferred substrates for each enzyme (4.75 nM MTH1 with 100 µM dGTP, 8 nM NUDT15 with 100 µM dGTP, 8 nM NUDT2 with 16 µM AP4A, 2 nM NUDT5 with 50 µM ADPR, 20 nM NUDT9 with 50 µM ADPR, 20 nM NUDT12 with 50 µM NADH, 2 nM NUDT14 with 50 µM ADPR, 200 nM NUDT18 with 50 µM 8-oxo-dGTP, 0.2 nM ITPase with […], 35 nM dCTPase with 35 µM dCTP, and 1 nM dUTPase with 12.5 µM dUTP). MTH1, NUDT15, NUDT18, ITPase, dCTPase and dUTPase reactions were coupled with 0.2 U/mL pyrophosphatase, while NUDT2, NUDT5, NUDT9, NUDT12, and NUDT14 reactions were coupled by bovine intestinal phosphatase (10 U/mL).

Cn1c(=O)c2c(nc(N3CCNCC3)n2Cc2nnc(-c3ccc(Cl)c(Cl)c3)o2)n(C)c1=O [TH5427]
NUDT5 stabilization against protease degradation (NUDT5 in HL-60 cells): stabilized NUDT5 against exogenous protease degradation | NUDT5 stabilization in T47D cells (NUDT5 in T47D cells): demonstrated the best ability to stabilize NUDT5 in T47D cells | progestin-dependent proliferation, BrdU incorporation (T47D cells): abrogated the progestin-dependent proliferation response | DNA damage signaling (U-2 OS cells): neither induced significant DNA damage signaling | thermal shift of MTH1 by CETSA (MTH1 [1]): no thermal shift | inhibition at 100 µM (MTH1 [2]; 100 µM): 82% | IC50 (MTH1 [2]; dose-response, malachite green assay): 20.3 µM and 20 µM | selectivity for NUDT5 over MTH1 (MTH1 [2]; in vitro, ratio of IC50 values): 690 fold
